Values joined by “and” are separate entries in the source; they are usually repeats but may differ in a detail not shown here. Equal values may be shown once.
Test system: MCF-7 human breast cancer cells
Experiment: CellTiter Glo assay
Conditions: six wells and Average

Which results are given for L-Lactate [Substrate + Buffer]?
CellTiter Glo luminescence (number of cells) (MCF-7, Day 0, Substrate + Buffer): 376738 RLU and 379461 RLU and 340018 RLU and 370831 RLU and 395464 RLU and 380015 RLU; CellTiter Glo luminescence (number of cells) (MCF-7, Day 1, Substrate + Buffer): 136132 RLU and 135475 RLU and 224766 RLU and 187489 RLU and 171303 RLU and 142850 RLU; CellTiter Glo luminescence (number of cells) (MCF-7, Day 5, Substrate + Buffer): 180844 RLU and 214489 RLU and 155311 RLU and 175921 RLU and 183640 RLU and 185254 RLU; CellTiter Glo luminescence (number of cells) (MCF-7, Day 7, Substrate + Buffer): 147731 RLU and 163281 RLU and 149128 RLU and 150112 RLU and 139841 RLU and 176875 RLU

Reference: patent publication US11207386B2, “Methods for inhibiting tumor growth” (priority 2015, dated 2021)
